Here are results for six molecules from publication PMC6631993, “Investigation of the Binding Affinity of a Broad Array of L-Fucosides with Six Fucose-Specific Lectins of Bacterial and Fungal Origin” (Molecules, 2019).

Read-outs that look alike come from different tables or passages of the source.

One assay deals with RSL (Ralstonia pseudosolanacearum, UniProt Q8XXK6). The conditions noted are these: PBS, room temperature, lectin 0.05 mg/mL.
The next assay addresses T1, PA-IIL (LecB) (Pseudomonas aeruginosa, UniProt Q9HYN5).
T1 construct: recombinant in E. coli, D-mannose-agarose purified; homotetramer, two calcium ions per site
The assay is described as follows: hemagglutination inhibition, microscope detection. In kind it is biochemical. The conditions noted are these: 20 mM Tris/HCl, 150 mM NaCl, 5 mM CaCl2, pH 7.5, room temperature, lectin 1.25 mg/mL. The source says:
hemagglutination inhibition, microscope detection on PA-IIL (LecB)

In the next assay the target is T2, BC2L-C (Burkholderia cenocepacia, UniProt B4EH86).
T2 construct: gene BCAM0185; recombinant in E. coli; D-mannose-agarose purified; N-terminal domain (fucose site) is a trimer
The assay is described as follows: hemagglutination inhibition, microscope detection. In kind it is biochemical. The conditions noted are these: human 0+ papain-treated red blood cells, 20 mM Tris/HCl, 150 mM NaCl, 5 mM CaCl2, pH 7.5, room temperature, lectin 0.1 mg/mL, semi-quantitative. From the text:
hemagglutination inhibition, microscope detection on BC2L-C

A further assay addresses T3, AAL (Aleuria aurantia, UniProt P18891).
T3 construct: purchased freeze-dried (Vector Laboratories); dimer
T3 sequence (P18891 2-313): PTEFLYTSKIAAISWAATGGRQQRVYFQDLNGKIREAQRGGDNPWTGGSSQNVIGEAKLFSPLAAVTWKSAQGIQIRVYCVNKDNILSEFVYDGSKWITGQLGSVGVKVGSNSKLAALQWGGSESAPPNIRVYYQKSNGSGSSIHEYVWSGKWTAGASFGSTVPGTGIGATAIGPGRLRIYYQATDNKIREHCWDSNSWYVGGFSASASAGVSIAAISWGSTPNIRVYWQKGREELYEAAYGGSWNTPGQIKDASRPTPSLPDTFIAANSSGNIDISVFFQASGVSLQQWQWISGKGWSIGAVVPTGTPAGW
The assay is described as follows: hemagglutination inhibition, microscope detection. Conditions: PBS, room temperature, lectin 0.05 mg/mL. Format: biochemical. From the text:
hemagglutination inhibition, microscope detection on AAL

The next assay concerns the target T4, AOL (Aspergillus oryzae, UniProt Q2UNX8).
T4 construct: gene fleA; purchased freeze-dried (TCI); dimer
T4 sequence (Q2UNX8 1-311): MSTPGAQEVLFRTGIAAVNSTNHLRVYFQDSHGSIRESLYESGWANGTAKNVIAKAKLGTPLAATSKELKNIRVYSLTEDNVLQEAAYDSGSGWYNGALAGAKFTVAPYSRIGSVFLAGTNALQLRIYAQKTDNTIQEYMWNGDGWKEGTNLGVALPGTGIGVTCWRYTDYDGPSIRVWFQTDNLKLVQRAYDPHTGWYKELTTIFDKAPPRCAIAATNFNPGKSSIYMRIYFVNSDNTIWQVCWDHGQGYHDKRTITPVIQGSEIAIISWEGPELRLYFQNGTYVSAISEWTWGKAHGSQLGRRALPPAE
The assay is described as follows: hemagglutination inhibition, microscope detection. Format: biochemical. Conditions: PBS, room temperature, lectin 0.05 mg/mL. From the text:
hemagglutination inhibition, microscope detection on AOL

The target in the next assay is T5, AFL (Aspergillus fumigatus, UniProt Q4WW81).
T5 construct: gene fleA; dimer of six-bladed beta-propellers
Kind of assay: hemagglutination inhibition, microscope detection. Format: biochemical. Conditions: PBS; room temperature; lectin 0.05 mg/mL; valency 1. From the text: hemagglutination inhibition, microscope detection on AFL

T1 sequence (Q9HYN5 entry or part of it): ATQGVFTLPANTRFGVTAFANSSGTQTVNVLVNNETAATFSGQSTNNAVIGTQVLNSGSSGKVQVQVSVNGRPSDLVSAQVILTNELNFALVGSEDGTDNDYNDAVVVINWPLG
T2 sequence (B4EH86 entry or part of it): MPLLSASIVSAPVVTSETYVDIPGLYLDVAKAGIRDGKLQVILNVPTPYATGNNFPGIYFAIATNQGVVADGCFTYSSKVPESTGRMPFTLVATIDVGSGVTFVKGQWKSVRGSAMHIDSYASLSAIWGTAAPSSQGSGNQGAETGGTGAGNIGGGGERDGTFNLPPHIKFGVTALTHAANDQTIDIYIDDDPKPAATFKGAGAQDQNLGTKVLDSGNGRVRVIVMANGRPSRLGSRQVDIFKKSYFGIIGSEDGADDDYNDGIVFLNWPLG
T5 sequence (Q4WW81 whole entry): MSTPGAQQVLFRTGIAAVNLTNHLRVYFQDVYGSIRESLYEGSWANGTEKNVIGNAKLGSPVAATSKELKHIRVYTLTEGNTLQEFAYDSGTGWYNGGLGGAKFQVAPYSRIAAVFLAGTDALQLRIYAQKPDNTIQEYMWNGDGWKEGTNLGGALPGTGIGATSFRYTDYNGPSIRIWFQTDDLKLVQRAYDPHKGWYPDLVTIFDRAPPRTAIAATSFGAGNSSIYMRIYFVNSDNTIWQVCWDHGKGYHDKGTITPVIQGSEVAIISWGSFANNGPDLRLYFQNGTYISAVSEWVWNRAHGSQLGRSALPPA

With `C[C@@H]1O[C@@H](OCc2cn(CCN=[N+]=[N-])nn2)[C@@H](O)[C@H](O)[C@@H]1O` [compound 12, Compound 12], on RSL (valency 1), the “RSL / Potency” value worked out at 32 fold vs L-fucose.
For the molecule `C[C@@H]1O[C@@H](OCc2cn(CCOCCOCCOCCn3cc(CO[C@@H]4O[C@@H](C)[C@@H](O)[C@@H](O)[C@@H]4O)nn3)nn2)[C@@H](O)[C@H](O)[C@@H]1O` [compound 14, Compound 14], the “RSL / Potency” value at RSL (valency 2) stood at 128 fold vs L-fucose.
Consider `C[C@@H]1O[C@@H](OCc2cn(CCOCCOCCOCCn3cc(COCC(COCc4cn(CCOCCOCCOCCn5cc(CO[C@@H]6O[C@@H](C)[C@@H](O)[C@@H](O)[C@@H]6O)nn5)nn4)(COCc4cn(CCOCCOCCOCCn5cc(CO[C@@H]6O[C@@H](C)[C@@H](O)[C@@H](O)[C@@H]6O)nn5)nn4)COCc4cn(CCOCCOCCOCCn5cc(CO[C@@H]6O[C@@H](C)[C@@H](O)[C@@H](O)[C@@H]6O)nn5)nn4)nn3)nn2)[C@@H](O)[C@H](O)[C@@H]1O` [compound 2, Compound 2], for which the “AFL / β^#” value at PA-IIL (LecB) (valency 4) was found to be 32 fold vs L-fucose. For the same molecule, the “BC2L-C / Potency” value at BC2L-C (valency 4) was found to be 16 fold vs L-fucose. At AAL (valency 4), the “AFL / Potency” value was found to be 128 fold vs L-fucose. For the same molecule, at RSL (valency 4), the “RSL / Potency” value was 1024 fold vs L-fucose. In addition, the “RSL / β^#” value on AOL (0+ papain-treated red blood cells, semi-quantitative, valency 4) is recorded as 256 fold vs L-fucose.
Consider `C#CCO[C@@H]1O[C@@H](C)[C@@H](O)[C@@H](O)[C@@H]1O` [compound 11, Compound 11], for which the “AFL / Potency” value on AFL, at PA-IIL (LecB) (valency 1), on AAL (valency 1) and on AOL (valency 1) was 4 fold vs L-fucose each time. Further, the “RSL / Potency” value on RSL (valency 1) is 8 fold vs L-fucose.
For `C[C@@H]1O[C@@H](SCCO)[C@@H](O)[C@H](O)[C@@H]1O` [compound 21, Compound 21], the “AFL / Potency” value at AFL and on AAL (valency 1) was 2 fold vs L-fucose in each case. The “RSL / Potency” value at PA-IIL (LecB) (valency 1) was 4 fold vs L-fucose; at BC2L-C (valency 4 buffer and lectin concentration, valency 1) it was 4 fold vs L-fucose; at RSL (valency 1) it was 4 fold vs L-fucose; on AOL (valency 1) it was 4 fold vs L-fucose.
`C[C@@H]1O[C@@H](SCCS(=O)(=O)O)[C@@H](O)[C@H](O)[C@@H]1O` [compound 22, Compound 22]: on BC2L-C (valency 4), the “RSL / Potency” value is 4 fold vs L-fucose.
